Test results reported in patent publication US20260364175A1, “COMPOSITIONS FOR DRUG ADMINISTRATION” (Aegis Therapeutics, LLC, priority 2018, published 2026).
Entries after “also recorded” stand apart in the source; their conditions may differ.

Assays:
[1] = fast-dispersing tablets 50 mg with 1% to 2% alkylsaccharide
blood glucose [2] = test: Oral liraglutide with Intravail A3, blood glucose under dietary sugar challenge; type: in vivo, human; settings: Intravail A3 (FIG. 11)
Description: Procedure was as follows. […] Composition was mixed with disposable plastic dropper. 40 grams of dietary sugar was ingested and 60 minutes allowed to pass. Blood glucose was measured (upper arm just above elbow on left arm) using meter=To. Deposit composition on back of tongue and swallow. Blood glucose level was measured and recorded at T=10, 20, 30, 40, 55, 70, 80 and 90 min.

blood glucose [3] = test: Insulin plus tetradecylmaltoside as eye drops then nose drops, blood glucose in rats; type: in vivo, rat
Description: Tetradecylmaltoside (TDM) in combination with insulin also produced a drop in blood D-glucose levels when administered in the form of a drop intranasally as well as via a drop by the ocular route. […] Thus, intranasal delivery and administration of the alkyl saccharide with drug results in lowering of blood glucose levels.

human nasal epithelium = test: Nasal mucosa irritation
[4] = tested on: Escherichia coli (ATCC No. 8739); test: Antibacterial activity, log reduction of cfu; type: cell-based; settings: 0.2%; day 28
Description: (§1) The viable microorganisms used in the invention were not more than five passages removed from the original ATCC culture. As described herein, one passage is defined as the transfer of organisms from an established culture to fresh medium and all transfers are counted.
(§2) Cultures received from the ATCC are resuscitated according to the directions provided by the ATTC. Cells grown in broth were pelleted by centrifugation, resuspended in 1/20th the volume of fresh maintenance broth, and combined with an equal volume of 20% (v/v in water) sterile glycerol. Cells grown on agar were scraped from the surface into the maintenance broth also containing 10% glycerol broth. Small aliquots of the suspension were dispensed into sterile vials and the vials were stored in liquid nitrogen or in a mechanical freezer at a temperature no higher than about −50 °C. When a fresh seed-stock vial was required, it was removed and used to inoculate a series of working stock cultures. These working stock cultures were then used periodically (each day in the case of bacteria and yeast) to start the inoculum culture.
(§3) The culture conditions for the inoculum culture is substantially as described in Table IV. For example, suitable media can include but is not limited to, Soybean-Casein Digest or Sabouraud Dextrose Agar Medium. […]
(§4) The suspension should be refrigerated if it is not used within 2 hours. To confirm the initial cfu per mL estimate, the number of cfu per mL in each suspension was determined using the conditions of media and microbial recovery incubation times listed in Table IV (e.g., from about 3 to about 7 days). This value serves to calibrate the size of inoculum used in the test. The bacterial and yeast suspensions were used within 24 hours of harvest; whereas the fungal preparation can be stored under refrigeration for up to 7 days.
(§5) To determine which alkylglycoside formulations have antibacterial activity, the formulations were prepared in phosphate buffered saline (PBS) at pH 7. As a source of nutrition, either 1.5 mg/mL bovine serum albumin (BSA; see Tables V and VI) or 1 mg/mL of PYY was added (see Table VII) to the medium. BSA (CAS Number: 9048-46-8) was obtained from Sigma-Aldrich, St. Louis, MO, USA, n-dodecyl-4-O-α-D-glucopyranosyl-β-D-glucopyranoside and n-tetradecyl-4-O-α-D-glucopyranosyl-β-D-glucopyranoside were obtained from Anatrace Inc., Maumee, OH, USA, and PYY was obtained from Bachem California Inc., Torrance, CA, USA.
(§6) Antibacterial activity of the alkylglycosides were conducted in four sterile, capped bacteriological containers of suitable size into which a sufficient volume of alkylglycoside solution had been transferred. Each container was inoculated with one of the prepared and standardized inoculums and mixed. The volume of the suspension inoculum was between about 0.5% and about 1.0% of the volume of the alkylglycoside solution. […]. To determine the level of inhibition of growth, or reduction of growth based on a logarithmic scale, the initial concentration of viable microorganisms in each test preparation was estimated based on the concentration of microorganisms in each of the standardized inoculum as determined by the plate-count method. The inoculated containers were then incubated at about 22.5 °C±2.5. The growth or non-growth of the microorganisms in each culture/container were again determined at day 14 and day 28. The number of cfu present in each calculation was determined by the plate-count procedure standard in the art for the applicable intervals. The change in the orders of magnitude of bacterium and/or fungi was then determined by subtracting the first calculated log 10 values of the concentrations of cfu per mL present at the start or beginning (e.g., day 0), from the log 10 values of the concentration of cfu per mL for each microorganism at the applicable test intervals (e.g., day 14 and day 28; see Tables V, VI and VII).

[5] = tested on: Staphylococcus aureus (ATCC No. 6538); test: Antibacterial activity, log reduction of cfu; type: cell-based
Description: as §1, §2, §3, §4, §5, §6

blood glucose [6] = test: Ocular administration of insulin plus absorption enhancer, blood glucose in anesthetized rats; type: in vivo, rat (male Sprague-Dawley)
[7] = tested on: Candida albicans (ATCC No. 10231); test: Antimicrobial activity, log reduction of cfu; type: cell-based
Description: as §1, §2, §3, §4, §5, §6

[8] = tested on: Aspergillus niger (ATCC No. 16404); test: Antimicrobial activity, log reduction of cfu; type: cell-based
Description: as §1, §2, §3, §4, §5, §6

[9] = whole-swallowed tablet, oral; cited from earlier work
clinical = settings: human, in vivo
[10] = 10 mg fast-dispersing tablet with alkylsaccharide, buccal
[11] = Raloxifene pharmacokinetics; type: in vivo
Description: The recommended dosage is one 60 mg tablet daily. […]. […].

[12] = cited from earlier work
blood glucose [13] = settings: previous studies; cited from earlier work
blood glucose [14] = test: Ocular administration of glucagon plus surfactant, blood glucose in rats; type: in vivo, rat; settings: eye drops, 0.5% surfactant plus glucagon (30 μg)
[15] = Oral phenylephrine tablet bioavailability in a canine model; type: in vivo, dog; settings: compressed tablets
Description: In a canine model, subjects were dosed orally with various phenylephrine (PE) tablet formulations, and blood samples were taken to determine the rate of parent phenyl ethyl phenylephrine absorption. Blood levels of parent phenylephrine were measured. Three subject groups were created with each alkylsaccharide test group containing five subjects in each test group. All subject groups received 10 mg of phenylephrine as a single tablet. Each subject was in the fasting state for overnight and two hours post dose. Blood samples were taken at pre-dose, 5, 10, 15, 30, 45 min., 1, 2, and 3 hours.
Comparator was the standard 30 mg (total weight including excipients) phenylephrine tablet was no absorption enhancer. Group number 2 tablets contain the alkylsaccharide designated A3, which is n-dodecyl-beta-D-maltoside in the amounts of 2.5 mg, 5 mg, and 7.5 mg, respectively. Group number three tablets contain the alkylsaccharide designated B3, which is sucrose monododecanoate, in the amounts of 5 mg, 10 mg, and 20 mg, respectively.

[16] = cited from earlier work; remark: listed apart in the source
[17] = aqueous liquid with SDS and an organic acid; cited from earlier work
food intake = settings: injection, on average; cited from earlier work
[18] = formulations specifically optimized for oral delivery; cited from earlier work
mucociliary surfaces = settings: far below concentrations used in intranasal formulations; cited from earlier work

Molecule: CN(C)CCOC(c1ccccc1)c1ccccc1 [Diphenhydramine]
- onset of action [1]: more rapid onset of action

Molecule: CCCCCCCCCCCCCCCC(=O)N[C@@H](CCC(=O)NCCCC[C@H](NC(=O)[C@H](C)NC(=O)[C@H](C)NC(=O)[C@H](CCC(N)=O)NC(=O)CNC(=O)[C@H](CCC(=O)O)NC(=O)[C@H](CC(C)C)NC(=O)[C@H](Cc1ccc(O)cc1)NC(=O)[C@H](CO)NC(=O)[C@H](CO)NC(=O)[C@@H](NC(=O)[C@H](CC(=O)O)NC(=O)[C@H](CO)NC(=O)[C@@H](NC(=O)[C@H](Cc1ccccc1)NC(=O)[C@@H](NC(=O)CNC(=O)[C@H](CCC(=O)O)NC(=O)[C@H](C)NC(=O)[C@@H](N)Cc1cnc[nH]1)[C@@H](C)O)[C@@H](C)O)C(C)C)C(=O)N[C@@H](CCC(=O)O)C(=O)N[C@@H](Cc1ccccc1)C(=O)N[C@H](C(=O)N[C@@H](C)C(=O)N[C@@H](Cc1c[nH]c2ccccc12)C(=O)N[C@@H](CC(C)C)C(=O)N[C@H](C(=O)N[C@@H](CCCNC(=N)N)C(=O)NCC(=O)N[C@@H](CCCNC(=N)N)C(=O)NCC(=O)O)C(C)C)[C@@H](C)CC)C(=O)O [Liraglutide]
- dose response (blood glucose [2]): positive dose response

Molecule: CCCCCCCCCCCCCCO[C@@H]1O[C@H](CO)[C@@H](O[C@H]2O[C@H](CO)[C@@H](O)[C@H](O)[C@H]2O)[C@H](O)[C@H]1O [Tetradecyl Maltoside, n-tetradecyl-4-O-α-D-glucopyranosyl-β-D-glucopyranoside]
- Blood Glucose (blood glucose [3]; 0 min, insulin eye drops with […]): 322 mg/dL
- effect on blood glucose (blood glucose [3]; 0.2% insulin eye drops with […] TDM): prompt and prominent drop in blood glucose levels
- Blood Glucose (blood glucose [3]; 15 min, insulin eye drops with […]): 335 mg/dL
- Blood Glucose (blood glucose [3]; 30 min, insulin eye drops with […]): 276 mg/dL
- Blood Glucose (blood glucose [3]; 45 min, insulin eye drops with […]): 221 mg/dL
- Blood Glucose (blood glucose [3]; 60 min, insulin eye drops with […]): 212 mg/dL
- Blood Glucose (blood glucose [3]; 75 min, insulin eye drops with […]): 167 mg/dL
- Blood Glucose (blood glucose [3]; 90 min, insulin eye drops with […]): 174 mg/dL
- Blood Glucose (blood glucose [3]; 120 min, insulin eye drops with […]): 208 mg/dL
- Blood Glucose (blood glucose [3]; 135 min, after insulin nose drops with 0.5%): 129 mg/dL
- Blood Glucose (blood glucose [3]; 150 min, after insulin nose drops with 0.5%): 74 mg/dL
- Blood Glucose (blood glucose [3]; 165 min, after insulin nose drops with 0.5%): 76 mg/dL
- Blood Glucose (blood glucose [3]; 180 min, after insulin nose drops with 0.5%): 68 mg/dL
- Blood Glucose (blood glucose [3]; […], insulin eye drops with […]): 167 mg/dL
- irritation of the nasal mucosa (human nasal epithelium; […] in OTC nasal saline, daily, 33 days): no observable irritation of the nasal mucosa
- growth from initial count [4]: No growth
- log reduction at 0.2 % ([5]; ATCC6538, 336 h): ≥ 5
- log reduction at 0.2 % ([5]; ATCC6538, 672 h): ≥ 5
- effect on blood glucose / ocular insulin absorption (blood glucose [6]; 0.5% enhancer with 0.2% insulin eye drops): effective as absorption enhancers
- effect on ocular insulin absorption (blood glucose [6]; […] enhancer with insulin eye drops): effective as absorption enhancers
- effect on ocular insulin absorption (alkyl chain length comparison) (blood glucose [6]; alkylmaltosides with insulin eye drops): more effective
- log reduction at 0.2 % ([7]; ATCC10231, 336 h): 3
- log reduction at 0.2 % ([7]; ATCC10231, 672 h): ≥ 5.4
- growth from initial count ([8]; 0.2%, day 28): No growth
- log reduction at 0.2 % ([8]; Aspergillus niger, ATCC16404, 336 h): 0.5

Molecule: Cc1cc2c(s1)Nc1ccccc1N=C2N1CCN(C)CC1 [olanzapine]
- time to peak concentrations [9]: approximately 6 hours
- Tmax (clinical; 10 mg): 0.25 to 0.75 h
- Tmax (clinical; po): ~6 h
- hepatic extraction ratio (clinical; po): ~0.4
- first-pass effect metabolism [10]: substantially reduced first-pass effect metabolism

Molecule: O=C(c1ccc(OCCN2CCCCC2)cc1)c1c(-c2ccc(O)cc2)sc2cc(O)ccc12 [raloxifene]
- circulating inactive raloxifene glucuronide ([11]; fast-dispersing tablet 10 mg or less, 0.5% to 5% dodecyl maltoside, buccal): less circulating inactive raloxifene glucuronide
- bioavailability ([11]; human, in vivo, fast-dispersing 60 mg tablet (without alkylsaccharide), read-out: absolute bioavailability): ~2%
- water solubility [12]: approx. 0.25 mg/L

Molecule: CC1(C)[C@@H](O[C@@H]2OC[C@H](O[C@@H]3OC[C@@H](O)[C@H](O)[C@H]3O)[C@H](O[C@H]3O[C@H](CO)[C@@H](O)[C@H](O)[C@H]3O)[C@H]2O[C@@H]2O[C@H](CO)[C@@H](O)[C@H](O)[C@H]2O[C@H]2O[C@H](CO)[C@@H](O)[C@H](O)[C@H]2O)CC[C@]2(C)[C@H]3CCC45OCC6(CC[C@@](C)(C=O)C[C@@H]64)[C@H](O)C[C@@]5(C)[C@]3(C)CC[C@@H]12 (stereo partly shown) [saponin, reference compound]
- stimulation of insulin absorption from the eye (blood glucose [13]): stimulated
- effect on ocular glucagon absorption / blood D-glucose (blood glucose [14]): effective; also recorded: rises significantly

Molecule: CCCCCCCCCCCC(=O)OC[C@H]1O[C@H](O[C@]2(CO)O[C@H](CO)[C@@H](O)[C@@H]2O)[C@H](O)[C@@H](O)[C@@H]1O [sucrose dodecanoate, sucrose monododecanoate]
- irritation of nasal epithelium (human nasal epithelium; 47 days): no observable irritation was detected
- increase of oral bioavailability of phenylephrine [15]: up to 50%
- amount consumable without observable adverse effect ([16]; 70 kilogram person): 1400-2100 grams per day
- acceptable daily intake for humans ([16]; about 1% of the NOAEL): 14-21 grams per day
- NOAEL ([16]; in vivo): 20-30 grams/kilogram/day

Molecule: Calcitonin: calcitonin
- stability [17]: at least 6 months

Molecule: PYY: gut hormone fragment peptide PYY3-36
- reduction of food eaten (food intake): 30%

Molecule: Parathyroid hormone: parathyroid hormone
- oral bioavailability [18]: 2.1%

Molecule: benzalkonium chloride
- disruption of mucociliary surfaces (mucociliary surfaces): significant disruption of the mucociliary surfaces
